ChEMBL document CHEMBL3885861, “Open TG-GATES”

Species: Rattus norvegicus
Assay: Open TG-GATES - Regimen: Daily Repeat
Assay type: toxicity, organism-based, Sprague-Dawley
Set-up: regimen Daily Repeat, gender Male, age 6 weeks
Settings: in vivo, po, route gavage; for APTT / Bas / Eos / Fbg / Ht / Lym / MCH / MCHC / MCV / PT / Plat / RBC / Ret / WBC / Hb / Mono / Neu: tissue Blood; for KIDNEY_L / KIDNEY_R / KIDNEY_TOTAL: tissue Kidney; for LIVER: tissue Liver; for ALP / ALT / AST / CRE / Ca / Cl / DBIL / IP / K / LDH / Na / PL / RALB / TBIL / TC / TG / TP / gamma-GTP / BUN: tissue Plasma
[1] = 0 mg/kg, 72 h, dose level Control, time 3 day
[2] = 0 mg/kg, […], dose level Control, time 14 day
[3] = 0 mg/kg, […], dose level Control, time 28 day
[4] = 1 mg/kg, 72 h, dose level Low, time 3 day
[5] = 1 mg/kg, […], dose level Low, time 14 day
[6] = 1 mg/kg, […], dose level Low, time 28 day

Work on C#C[C@]1(O)CC[C@H]2[C@@H]3CCc4cc(O)ccc4[C@H]3CC[C@@]21C [ETHINYL ESTRADIOL] yielded a TERMINAL_BW [1] of 222.5 g, an APTT [1] of 16.4 s and a Bas [1] of 0.2%. The Eos [1] was 1%, the Fbg [1] was 261.6 mg/dL and the Ht [1] was 40.2%. The Lym [1] was 79%, the MCH [1] was 21.4 pg and the MCHC [1] was 33.5%. For the same molecule, the MCV [1] was 63.8 fL, the PT [1] was 12.3 s and the Plat [1] was 110.8 x10_4/uL. For the same molecule, the RBC [1] was 630.4 x10_4/ul, the Ret [1] was 7.8% and the WBC [1] was 93.3 x10_2/uL. For the same molecule, the KIDNEY_L [1] was 0.9 g, the KIDNEY_R [1] was 1 g and the LIVER [1] was 10.3 g. The ALP [1] was 1467.2 IU/L, the ALT [1] was 49.6 IU/L and the AST [1] was 73.2 IU/L. For the same molecule, the CRE [1] was 0.2 mg/dL, the Ca [1] was 10.8 mg/dL and the Cl [1] was 106.8 meq/L. It also gave a DBIL [1] of 0.018 mg/dL, an IP [1] of 6.5 mg/dL and a K [1] of 4 meq/L. For the same molecule, the LDH [1] was 68.4 IU/L, the Na [1] was 143.2 meq/L and the PL [1] was 134.2 mg/dL. The RALB [1] was 2.6 g/dL, the TBIL [1] was 0.034 mg/dL and the TC [1] was 77.8 mg/dL. For the same molecule, the TG [1] was 98.2 mg/dL, the TP [1] was 5.5 g/dL and the gamma-GTP [1] was 1.2 IU/L. For the same molecule, the TERMINAL_BW [2] was 321.6 g, the TERMINAL_BW [3] was 423 g and the APTT [2] was 16.7 s. It also gave a Bas [2] of 0%, an Eos [2] of 1% and a Fbg [2] of 279.4 mg/dL. It also gave a Hb [2] of 13.9 g/dL, a Ht [2] of 40.3% and a Lym [2] of 76.4%. For the same molecule, the MCH [2] was 20.9 pg, the MCV [2] was 60.2 fL and the Mono [2] was 2.4%. The PT [2] was 11.8 s, the Plat [2] was 120 x10_4/uL and the RBC [2] was 668.4 x10_4/ul. The Ret [2] was 4.5%, the WBC [2] was 90.3 x10_2/uL and the APTT [3] was 18 s. The Bas [3] was 0.2%, the Eos [3] was 1% and the Fbg [3] was 294.2 mg/dL. For the same molecule, the Hb [3] was 15 g/dL, the Ht [3] was 42.5% and the Lym [3] was 79.4%. The MCH [3] was 20.3 pg, the MCHC [3] was 35.3% and the MCV [3] was 57.3 fL. It also gave a Mono [3] of 2.2%, a Plat [3] of 88.3 x10_4/uL and an RBC [3] of 742.6 x10_4/ul. The Ret [3] was 2.6%, the WBC [3] was 108.2 x10_2/uL and the KIDNEY_L [2] was 1.3 g. It also gave a KIDNEY_R [2] of 1.3 g, a KIDNEY_TOTAL [2] of 2.6 g and a KIDNEY_L [3] of 1.4 g. For the same molecule, the KIDNEY_R [3] was 1.4 g, the KIDNEY_TOTAL [3] was 2.8 g and the LIVER [2] was 14.4 g. It also gave an LIVER [3] of 18.3 g, an ALP [2] of 1586.6 IU/L and an ALT [2] of 44.2 IU/L. It also gave an AST [2] of 66.6 IU/L, a BUN [2] of 15.4 mg/dL and a CRE [2] of 0.2 mg/dL. For the same molecule, the Ca [2] was 11.3 mg/dL, the Cl [2] was 104.8 meq/L and the DBIL [2] was 0.016 mg/dL. For the same molecule, the IP [2] was 6.5 mg/dL, the K [2] was 3.9 meq/L and the LDH [2] was 72.8 IU/L. It also gave a Na [2] of 143.2 meq/L, a PL [2] of 143 mg/dL and a TBIL [2] of 0.07 mg/dL. It also gave a TC [2] of 74.6 mg/dL, a TG [2] of 104.4 mg/dL and a TP [2] of 6 g/dL. For the same molecule, the gamma-GTP [2] was 0.8 IU/L, the ALP [3] was 1125 IU/L and the ALT [3] was 39.4 IU/L. It also gave an AST [3] of 58 IU/L, a BUN [3] of 16 mg/dL and a CRE [3] of 0.2 mg/dL. It also gave a Cl [3] of 104.8 meq/L, a DBIL [3] of 0.012 mg/dL and an IP [3] of 6.1 mg/dL. For the same molecule, the K [3] was 3.8 meq/L, the LDH [3] was 59.2 IU/L and the Na [3] was 143.2 meq/L. For the same molecule, the PL [3] was 155.8 mg/dL, the RALB [3] was 2.9 g/dL and the TBIL [3] was 0.066 mg/dL. It also gave a TC [3] of 80.4 mg/dL, a TG [3] of 137.2 mg/dL and a TP [3] of 6.3 g/dL. The gamma-GTP [3] was 1 IU/L, the TERMINAL_BW [4] was 204.6 g and the APTT [4] was 17 s. The Bas [4] was 0%, the Eos [4] was 1% and the Fbg [4] was 309.6 mg/dL. The Ht [4] was 39.1%, the Lym [4] was 82.4% and the MCHC [4] was 34.2%. It also gave an MCV [4] of 62.3 fL, a Mono [4] of 3.6% and a Neu [4] of 12.6%. The PT [4] was 13.1 s, the Plat [4] was 107.6 x10_4/uL and the RBC [4] was 627.4 x10_4/ul. For the same molecule, the Ret [4] was 5.1%, the WBC [4] was 72 x10_2/uL and the KIDNEY_L [4] was 1 g. The KIDNEY_R [4] was 1 g, the KIDNEY_TOTAL [4] was 2 g and the LIVER [4] was 11.7 g. It also gave an ALP [4] of 2115.4 IU/L, an ALT [4] of 41.2 IU/L and an AST [4] of 84.2 IU/L. It also gave a BUN [4] of 9.4 mg/dL, a CRE [4] of 0.2 mg/dL and a Ca [4] of 10.6 mg/dL. For the same molecule, the Cl [4] was 107.4 meq/L, the DBIL [4] was 0.038 mg/dL and the IP [4] was 7.4 mg/dL. For the same molecule, the K [4] was 4 meq/L, the LDH [4] was 95.4 IU/L and the Na [4] was 144 meq/L. The PL [4] was 82.6 mg/dL, the RALB [4] was 2.6 g/dL and the TBIL [4] was 0.07 mg/dL. It also gave a TC [4] of 29.4 mg/dL, a TG [4] of 73.6 mg/dL and a TP [4] of 5.6 g/dL. It also gave a gamma-GTP [4] of 1.2 IU/L, a TERMINAL_BW [5] of 243.2 g and a TERMINAL_BW [6] of 264.8 g. For the same molecule, the APTT [5] was 23 s, the Bas [5] was 0% and the Eos [5] was 1%. For the same molecule, the Fbg [5] was 328.6 mg/dL, the Hb [5] was 13.9 g/dL and the Ht [5] was 38.9%. It also gave a Lym [5] of 77.6%, an MCH [5] of 20.1 pg and an MCHC [5] of 35.6%. For the same molecule, the MCV [5] was 56.3 fL, the PT [5] was 13.5 s and the Plat [5] was 120.8 x10_4/uL. The RBC [5] was 690.2 x10_4/ul, the Ret [5] was 1.8% and the WBC [5] was 80.9 x10_2/uL. The APTT [6] was 27.7 s, the Bas [6] was 0% and the Eos [6] was 1%. For the same molecule, the Fbg [6] was 328.6 mg/dL, the Hb [6] was 14.3 g/dL and the Ht [6] was 39%. For the same molecule, the Lym [6] was 77.6%, the MCH [6] was 19.9 pg and the MCHC [6] was 36.7%. The MCV [6] was 54.2 fL, the Mono [6] was 2.6% and the Neu [6] was 18.8%. For the same molecule, the PT [6] was 13.6 s, the Plat [6] was 113.5 x10_4/uL and the RBC [6] was 720.8 x10_4/ul. For the same molecule, the Ret [6] was 2.4%, the WBC [6] was 82.1 x10_2/uL and the KIDNEY_L [5] was 1 g. The KIDNEY_R [5] was 1 g, the KIDNEY_TOTAL [5] was 2 g and the KIDNEY_L [6] was 1 g. The KIDNEY_R [6] was 1 g, the KIDNEY_TOTAL [6] was 2 g and the LIVER [5] was 13.6 g. The LIVER [6] was 14.4 g, the ALP [5] was 1995.4 IU/L and the ALT [5] was 41 IU/L. For the same molecule, the AST [5] was 53.8 IU/L, the BUN [5] was 13.2 mg/dL and the CRE [5] was 0.2 mg/dL. The Cl [5] was 105.8 meq/L, the DBIL [5] was 0.03 mg/dL and the IP [5] was 5.7 mg/dL. For the same molecule, the K [5] was 3.9 meq/L, the LDH [5] was 60.8 IU/L and the Na [5] was 143.8 meq/L. It also gave a PL [5] of 105.4 mg/dL, an RALB [5] of 2.9 g/dL and a TBIL [5] of 0.084 mg/dL. For the same molecule, the TC [5] was 33.4 mg/dL, the TG [5] was 68 mg/dL and the TP [5] was 6.5 g/dL. The ALP [6] was 1546.2 IU/L, the ALT [6] was 37.8 IU/L and the AST [6] was 50.6 IU/L. It also gave a BUN [6] of 14 mg/dL, a CRE [6] of 0.3 mg/dL and a Ca [6] of 10.8 mg/dL. For the same molecule, the Cl [6] was 105.4 meq/L, the DBIL [6] was 0.036 mg/dL and the IP [6] was 5.3 mg/dL. It also gave a K [6] of 3.6 meq/L, an LDH [6] of 38 IU/L and a Na [6] of 144 meq/L. The PL [6] was 147 mg/dL and the RALB [6] was 3 g/dL.
